Data as given in ChEMBL document CHEMBL5518180, “Design, synthesis, and biological evaluation of harmine derivatives as topoisomerase I inhibitors for cancer treatment” (Eur J Med Chem, 2024).
Calls of active or inactive are those of the source. The calls are words filed in the database; no cut-off is given here.

Experiments:
HepG2 = test: Antiproliferative activity against human HepG2 cells assessed as inhibition of cell growth incubated for 48 hrs by MTT assay; type: functional, cell-based; conditions: HepG2, 48 h
MCF7 [1] = test: Antiproliferative activity against human MCF7 cells assessed as inhibition of cell growth incubated for 48 hrs by MTT assay; type: functional, cell-based; conditions: MCF7, 48 h
HT-29 = test: Antiproliferative activity against human HT-29 cells assessed as inhibition of cell growth incubated for 48 hrs by MTT assay; type: functional, cell-based; conditions: HT-29, 48 h
A549 = test: Antiproliferative activity against human A549 cells assessed as inhibition of cell growth incubated for 48 hrs by MTT assay; type: functional, cell-based; conditions: A549, 48 h
[2] = Cytotoxicity against human L02 cells assessed as inhibition of cell growth incubated for 48 hrs by MTT assay; type: toxicity, cell-based
MDA-MB-231 = test: Antiproliferative activity against human MDA-MB-231 cells assessed as inhibition of cell growth incubated for 48 hrs by MTT assay; type: functional, cell-based; conditions: MDA-MB-231, 48 h
PC-3 = test: Antiproliferative activity against human PC-3 cells assessed as inhibition of cell growth incubated for 48 hrs by MTT assay; type: functional, cell-based; conditions: PC-3, 48 h
MCF7 [3] = test: Induction of apoptosis in human MCF7 cells assessed as late apoptotic cells at 25 uM incubated for 24 hrs by Annexin V-FITC/Propidium Iodide staining based flow cytometry analysis (reference value: 5.58 %); type: functional
MCF7 [4] = test: Induction of apoptosis in human MCF7 cells assessed as necrotic cells at 25 uM incubated for 24 hrs by Annexin V-FITC/Propidium Iodide staining based flow cytometry analysis (reference value: 0.082 %); type: functional
MCF7 [5] = test: Induction of apoptosis in human MCF7 cells assessed as viable cells at 25 uM incubated for 24 hrs by Annexin V-FITC/Propidium Iodide staining based flow cytometry analysis (reference value: 91.8 %); type: functional; conditions: read-out: Activity
MCF7 [6] = test: Induction of apoptosis in human MCF7 cells assessed as early apoptotic cells at 25 uM incubated for 24 hrs by Annexin V-FITC/Propidium Iodide staining based flow cytometry analysis (reference value: 2.54 %); type: functional
4T1 = test: Antitumor activity against mouse 4T1 cells transplanted in BALB/c mouse assessed as tumor growth inhibition rate at 10 mg/kg, ip administered for 14 days relative to control; type: functional; parameters: scale not given: the % may be the effect or the level left; conditions: time 14 day
MCF7 [7] = test: Induction of DNA damage in human MCF7 cells at 10 uM incubated for 24 hrs by Comet assay; type: functional, cell-based
MCF7 [8] = test: Induction of DNA double-strand breaks in human MCF7 cells assessed as increase in gamma-H2AX at 10 uM incubated for 48 hrs by DAPI staining based confocal laser scanning microscopy; type: functional, cell-based

| SMILES | IC50 (HepG2) | IC50 (MCF7 [1]) | IC50 (HT-29) | IC50 (A549) | IC50 at 48 h [2] | IC50 (MDA-MB-231) | IC50 (PC-3) | Activity (MCF7 [3]) | Activity (MCF7 [4]) | viability at 25 µM (MCF7 [5]) | Activity (MCF7 [6]) | Activity (4T1) | Activity (MCF7 [7]) | Activity (MCF7 [8]) |
| --- | --- | --- | --- | --- | --- | --- | --- | --- | --- | --- | --- | --- | --- | --- |
| COc1ccc2[nH]c3c(C(=O)/C=C/c4ccc(OC)c(OC)c4OC)nccc3c2c1 | > 20 µM | 6.1 µM | 6.08 µM | 7.1 µM | > 20 µM | > 20 µM | > 10 µM | – | – | – | – | – | – | – |
| COc1ccc(/C=C/C(=O)c2nccc3c2[nH]c2ccccc23)cc1 | > 20 µM | 17.3 µM | 19 µM | > 20 µM | > 20 µM | > 20 µM | > 10 µM | – | – | – | – | – | – | – |
| COc1ccc2[nH]c3c(C(=O)/C=C/c4c(OC)cccc4OC)nccc3c2c1 | 7.13 µM | 5.71 µM | 13.6 µM | 15.3 µM | > 20 µM | 12 µM | > 10 µM | – | – | – | – | – | – | – |
| O=C(/C=C/c1cccc(Br)c1)c1nccc2c1[nH]c1ccccc12 | 5.89 µM | 4.99 µM | 7.24 µM | 11.8 µM | 14.3 µM | 6.44 µM | 2.69 µM | – | – | – | – | – | – | – |
| COc1cccc(OC)c1/C=C/C(=O)c1nccc2c1[nH]c1ccccc12 | > 20 µM | 10.5 µM | > 20 µM | > 20 µM | > 20 µM | > 20 µM | > 10 µM | – | – | – | – | – | – | – |
| COc1cc(/C=C/C(=O)c2nccc3c2[nH]c2ccccc23)ccc1F | 5.7 µM | 2.38 µM | 10.9 µM | 3.07 µM | > 20 µM | 3.25 µM | 1.02 µM | – | – | – | – | – | – | – |
| COc1ccc2c(c1)[nH]c1c(C)nccc12 [HARMINE] | 19.2 µM | 13.4 µM | 12.2 µM | – | 9.49 µM | 13.2 µM | 15.6 µM | 7.48% | 0.055% | 82.7% | 9.74% | – | – | – |
| O=C(/C=C/c1cc(F)c(F)c(F)c1)c1nccc2c1[nH]c1ccccc12 | 0.96 µM | 0.88 µM | 0.89 µM | 5.73 µM | 17.8 µM | 2.05 µM | 1.19 µM | – | – | – | – | – | – | – |
| CCc1c2c(nc3ccc(OC(=O)N4CCC(N5CCCCC5)CC4)cc13)-c1cc3c(c(=O)n1C2)COC(=O)[C@]3(O)CC [IRINOTECAN] | – | – | – | – | – | – | – | – | – | – | – | 41.27% | – | – |
| COc1ccc(/C=C/C(=O)c2nccc3c2[nH]c2ccccc23)c(OC)c1OC | 11.6 µM | > 20 µM | > 20 µM | > 20 µM | > 20 µM | > 20 µM | > 10 µM | – | – | – | – | – | – | – |
| COc1ccc2[nH]c3c(C(=O)/C=C/c4cccc(I)c4)nccc3c2c1 | > 20 µM | 1.58 µM | 2.34 µM | > 20 µM | > 20 µM | 8.71 µM | > 10 µM | – | – | – | – | – | – | – |
| COc1ccc2[nH]c3c(C(=O)/C=C/c4cc(Cl)ccc4Cl)nccc3c2c1 | > 20 µM | 7.95 µM | 0.68 µM | > 20 µM | > 20 µM | 8.13 µM | > 10 µM | – | – | – | – | – | – | – |
| O=C(/C=C/c1cc(Cl)ccc1Cl)c1nccc2c1[nH]c1ccccc12 | 3.37 µM | 0.59 µM | 3.14 µM | 6.78 µM | 9.91 µM | 2.77 µM | 1.4 µM | – | – | – | – | – | – | – |
| O=C(/C=C/c1ccc([N+](=O)[O-])cc1)c1nccc2c1[nH]c1ccccc12 | > 20 µM | 5.87 µM | 3.96 µM | > 20 µM | > 20 µM | 0.62 µM | > 10 µM | – | – | – | – | – | – | – |
| COc1ccc2[nH]c3c(C(=O)/C=C/c4ccc(Cl)c(C)c4)nccc3c2c1 | 2.74 µM | 4.38 µM | 1.89 µM | 7.49 µM | > 20 µM | 6.45 µM | > 10 µM | – | – | – | – | – | – | – |
| CC[C@@]1(O)C(=O)OCc2c1cc1n(c2=O)Cc2cc3ccccc3nc2-1 [CAMPTOTHECIN] | 1.8 µM | 6.85 µM | 1.87 µM | 7.8 µM | 0.59 µM | 0.62 µM | 6.6 µM | – | – | – | – | – | Active | Active |
| O=C(/C=C/c1ccc(Br)cc1)c1nccc2c1[nH]c1ccccc12 | > 20 µM | 3.54 µM | 9.73 µM | 12.2 µM | > 20 µM | 9.21 µM | > 10 µM | – | – | – | – | – | – | – |

| SMILES | IC50 (HepG2) | IC50 (MCF7 [1]) | IC50 (HT-29) | IC50 (A549) | IC50 at 48 h [2] | IC50 (MDA-MB-231) | IC50 (PC-3) | Activity (MCF7 [3]) | Activity (MCF7 [4]) | viability at 25 µM (MCF7 [5]) | Activity (MCF7 [6]) | Activity (4T1) | Activity (MCF7 [7]) | Activity (MCF7 [8]) |
| --- | --- | --- | --- | --- | --- | --- | --- | --- | --- | --- | --- | --- | --- | --- |
| O=C(/C=C/c1cccc(I)c1)c1nccc2c1[nH]c1ccccc12 | > 20 µM | 1.6 µM | > 20 µM | > 20 µM | > 20 µM | 5.17 µM | > 10 µM | – | – | – | – | – | – | – |
| CCc1ccc(/C=C/C(=O)c2nccc3c2[nH]c2ccccc23)cc1 | > 20 µM | > 20 µM | > 20 µM | > 20 µM | > 20 µM | > 20 µM | > 10 µM | – | – | – | – | – | – | – |
| COc1ccc2[nH]c3c(C(=O)/C=C/C=C/c4ccccc4)nccc3c2c1 | 18.9 µM | 17.5 µM | > 20 µM | > 20 µM | > 20 µM | > 20 µM | > 10 µM | – | – | – | – | – | – | – |
| COc1ccc2[nH]c3c(C(=O)/C=C/c4ccc5c(c4)OCCO5)nccc3c2c1 | 15.6 µM | 14.5 µM | > 20 µM | > 20 µM | > 20 µM | 18.1 µM | 3.79 µM | – | – | – | – | – | – | – |
| COc1ccc2[nH]c3c(C(=O)/C=C/c4c(C)cccc4C)nccc3c2c1 | > 20 µM | 10.1 µM | > 20 µM | > 20 µM | > 20 µM | > 20 µM | > 10 µM | – | – | – | – | – | – | – |
| COc1ccc2[nH]c3c(C(=O)/C=C/c4ccc(Cl)c([N+](=O)[O-])c4)nccc3c2c1 | 7.72 µM | > 20 µM | > 20 µM | 5.72 µM | > 20 µM | 2.99 µM | > 10 µM | – | – | – | – | – | – | – |
| COc1ccc2[nH]c3c(C(=O)/C=C/c4ccc(F)c(OC)c4)nccc3c2c1 | 6.33 µM | 0.77 µM | 2.47 µM | 6.48 µM | > 20 µM | 1.41 µM | 0.99 µM | – | – | – | – | – | – | – |
| COc1ccc2[nH]c3c(C(=O)/C=C/c4cc(OC)c(OC)cc4Br)nccc3c2c1 | > 20 µM | 8.05 µM | 11.3 µM | 4.51 µM | > 20 µM | > 20 µM | > 10 µM | – | – | – | – | – | – | – |
| COc1ccc2[nH]c3c(C(=O)/C=C/c4cc(F)c(F)c(F)c4)nccc3c2c1 | 15.9 µM | 4.23 µM | 2.72 µM | > 20 µM | > 20 µM | 6.52 µM | > 10 µM | – | – | – | – | – | – | – |
| O=C(/C=C/c1ccc2c(c1)OCCO2)c1nccc2c1[nH]c1ccccc12 | 13.2 µM | > 20 µM | > 20 µM | > 20 µM | > 20 µM | 15.2 µM | > 10 µM | – | – | – | – | – | – | – |
| COc1ccc2[nH]c3c(C(=O)/C=C/c4cccc(Br)c4)nccc3c2c1 | > 20 µM | > 20 µM | 0.49 µM | > 20 µM | > 20 µM | > 20 µM | > 10 µM | – | – | – | – | – | – | – |
| O=C(/C=C/c1ccccc1Cl)c1nccc2c1[nH]c1ccccc12 | 2.8 µM | 3.35 µM | 12.5 µM | 5.37 µM | 11.4 µM | 3.43 µM | 2.39 µM | – | – | – | – | – | – | – |
| COc1ccc2[nH]c3c(C(=O)/C=C/c4ccc(Br)cc4)nccc3c2c1 | 15.7 µM | 8.45 µM | 7.74 µM | > 20 µM | > 20 µM | 5.67 µM | 4.18 µM | – | – | – | – | – | – | – |
| COc1ccc2[nH]c3c(C(=O)/C=C/c4ccc([N+](=O)[O-])cc4)nccc3c2c1 | > 20 µM | 15.5 µM | > 20 µM | > 20 µM | > 20 µM | > 20 µM | > 10 µM | – | – | – | – | – | – | – |
| COc1ccc2[nH]c3c(C(=O)/C=C/c4ccccc4Cl)nccc3c2c1 | > 20 µM | > 20 µM | 0.52 µM | > 20 µM | > 20 µM | 1.43 µM | > 10 µM | – | – | – | – | – | – | – |
| COc1cc(Br)c(/C=C/C(=O)c2nccc3c2[nH]c2ccccc23)cc1OC | 9.65 µM | 2.21 µM | 3.75 µM | 9.83 µM | > 20 µM | 7.03 µM | > 10 µM | – | – | – | – | – | – | – |
